Experimental data as given in the Deep4Chem optical property database.

Experiment: photoluminescence quantum yield (fraction); solvent given as SMILES

CC1(C)c2cc(/C=C/c3nc(/C=C/c4ccc5c(c4)C(C)(C)c4cc(N(c6ccccc6)c6ccccc6)ccc4-5)nc(/C=C/c4ccc5c(c4)C(C)(C)c4cc(N(c6ccccc6)c6ccccc6)ccc4-5)n3)ccc2-c2ccc(N(c3ccccc3)c3ccccc3)cc21
photoluminescence quantum yield (in Cc1ccccc1): 0.36

CCOC(=O)c1c(NC(C)(C)C)oc(-c2ccc(-c3ccccc3)cc2)c1C(=O)OCC
photoluminescence quantum yield (in CC#N): 0.235

CC(=O)c1cc(=O)n(C)c2cc(-c3ccc(N(C)C)cc3)sc12
photoluminescence quantum yield (in ClCCl): 0.18

COc1ccc2c(c1)-c1cc(OC)ccc1C2=O
photoluminescence quantum yield (in C1CCCCC1): 0.0028 | photoluminescence quantum yield (in CC#N): 0.028 | photoluminescence quantum yield (in CCO): 0.002

CCOC(=O)c1ccc(/C=C/C2=[N+]3C(=C(c4ccccc4)c4ccc(/C=C/c5ccc(C(=O)OCC)o5)n4[B-]3(F)F)C=C2)o1
photoluminescence quantum yield (in ClC(Cl)Cl): 0.29

O=Cc1ccc(-c2ccc(C3=CCC(c4ccccc4)CC3)s2)s1 (configuration not stated)
photoluminescence quantum yield (in CCO): 0.29

N#Cc1c(-n2nnc3ccc(Cl)cc32)n([C@H]2C[C@H](O)[C@@H](CO)O2)c2ncnc(N)c12
photoluminescence quantum yield (in CO): 0.008

N#Cc1ccc(/C2=C3N=C(C(c4ccccc4)=C/3c3ccccc3)/C(c3ccc(C#N)cc3)=c3\[nH]/c(c(-c4ccccc4)c3-c3ccccc3)=C(/c3ccc(C#N)cc3)C3=N/C(=C(/c4ccc(C#N)cc4)c4[nH]c2c(-c2ccccc2)c4-c2ccccc2)C(c2ccccc2)=C3c2ccccc2)cc1
photoluminescence quantum yield (in ClCCl): 0.004

COc1ccc(O)c(-c2[nH]c(=O)n3c2-c2ccccc2C3=O)c1
photoluminescence quantum yield (in CC#N): 0.46 | photoluminescence quantum yield (in CO): 0.01 | photoluminescence quantum yield (in ClCCl): 0.66

O=C1/C(=C/C=C/c2cc3c4c(c2)CCCN4CCC3)CC/C1=C\C=C\c1cc2c3c(c1)CCCN3CCC2
photoluminescence quantum yield (in CC#N): 0.037 | photoluminescence quantum yield (in CC(C)=O): 0.092 | photoluminescence quantum yield (in CC(C)O): 0.07 | photoluminescence quantum yield (in CCCCCC): 0.13 | photoluminescence quantum yield (in CCCCO): 0.061 | photoluminescence quantum yield (in CCCO): 0.042 | photoluminescence quantum yield (in CCO): 0.026 | photoluminescence quantum yield (in CCOC(C)=O): 0.1 | photoluminescence quantum yield (in CCOCC): 0.26 | photoluminescence quantum yield (in CN(C)C=O): 0.053 | photoluminescence quantum yield (in CO): 0.026 | photoluminescence quantum yield (in CS(C)=O): 0.062 | photoluminescence quantum yield (in Cc1ccccc1): 0.3 | photoluminescence quantum yield (in ClCCl): 0.15 | photoluminescence quantum yield (in OCC(F)(F)F): 0.008 | photoluminescence quantum yield (in S=C=S): 0.078 | photoluminescence quantum yield (in c1ccccc1): 0.3 | photoluminescence quantum yield (in c1ccncc1): 0.17

c1ccc(-c2nc(-c3ccccc3)c(N(c3ccccc3)c3ccccc3)[se]2)cc1
photoluminescence quantum yield (in ClC(Cl)Cl): 0.068

O=[N+]([O-])c1ccc(-c2nc(/C=C/c3ccc(Cl)cc3)c(/C=C/c3ccc(Cl)cc3)[nH]2)cc1
photoluminescence quantum yield (in ClCCl): 0

CCOC(=O)COc1ccc(/C=C/C2=C3c4ccccc4C(c4ccc[nH]4)=[N+]3[B-](F)(F)n3ccc(C)c32)cc1
photoluminescence quantum yield (in C1CCOC1): 0.003 | photoluminescence quantum yield (in CC#N): 0.003 | photoluminescence quantum yield (in CCCCCC): 0.009 | photoluminescence quantum yield (in CO): 0.005 | photoluminescence quantum yield (in Cc1ccccc1): 0.004 | photoluminescence quantum yield (in ClCCl): 0.003

Nc1cccc2c1-c1ccccc1C2=O
photoluminescence quantum yield (in C1CCCCC1): 0.035 | photoluminescence quantum yield (in CC#N): 0.012 | photoluminescence quantum yield (in CCO): 0.00024 | photoluminescence quantum yield (in c1ccccc1): 0.074

c1csc(-c2cnc(-c3cccs3)c3nonc23)c1
photoluminescence quantum yield (in C1CCCCC1): 0.54 | photoluminescence quantum yield (in CC(C)=O): 0.39 | photoluminescence quantum yield (in CCCCCC): 0.54 | photoluminescence quantum yield (in CCCO): 0.22 | photoluminescence quantum yield (in CCO): 0.19 | photoluminescence quantum yield (in CCOCC): 0.52 | photoluminescence quantum yield (in CO): 0.15 | photoluminescence quantum yield (in Cc1ccccc1): 0.35 | photoluminescence quantum yield (in ClC(Cl)(Cl)Cl): 0.43 | photoluminescence quantum yield (in ClC(Cl)Cl): 0.35 | photoluminescence quantum yield (in O=[N+]([O-])c1ccccc1): 0.2 | photoluminescence quantum yield (in OCC(O)CO): 0.03 | photoluminescence quantum yield (in OCc1ccccc1): 0.12 | photoluminescence quantum yield (in c1ccc2ncccc2c1): 0.25 | photoluminescence quantum yield (in c1ccccc1): 0.4 | photoluminescence quantum yield (in c1ccncc1): 0.23

Cc1ccc(C2=Cc3c4ccccc4c4ccccc4[n+]3[B-](F)(F)O2)cc1
photoluminescence quantum yield (in ClC(Cl)Cl): 0.275

CC1(C)c2ccccc2-n2c(-c3ccc(-n4c5ccccc5c5ccccc54)cc3)nc3cccc1c32
photoluminescence quantum yield (in Cc1ccccc1): 0.99 | photoluminescence quantum yield (in O=P(c1ccccc1)(c1ccccc1)c1ccccc1Oc1ccccc1P(=O)(c1ccccc1)c1ccccc1): 0.85

CC(C)(C)c1cc2cc(N(c3ccccc3)c3ccccc3)c3cc(C(C)(C)C)cc4cc(N(c5ccccc5)c5ccccc5)c(c1)c2c43
photoluminescence quantum yield (in CCCCCC): 0.28

C(=C\c1cc2ccccc2c2ccccc12)/c1cc2ccccc2c2ccccc12
photoluminescence quantum yield (in C1CCOC1): 0.6

CCCC1(CCC)c2cc(-c3ccco3)ccc2-c2ccc(-c3ccco3)cc21
photoluminescence quantum yield (in C1CCCCC1): 0.86

COC(=O)c1ccccc1C#Cc1ccccc1NC(C)=O
photoluminescence quantum yield (in CC#N): 0.0002 | photoluminescence quantum yield (in ClCCl): 0.0003

N#CC(C#N)=Cc1ccc2nc(C#Cc3ccc(N(c4ccccc4)c4ccccc4)cc3)sc2c1
photoluminescence quantum yield (in Cc1ccccc1): 0.47

CN(C)c1nc(N)c2nc(C#N)n(Cc3ccccc3)c2n1
photoluminescence quantum yield (in C1COCCO1): 0.92 | photoluminescence quantum yield (in CC#N): 0.55 | photoluminescence quantum yield (in CO): 0.8 | photoluminescence quantum yield (in ClCCl): 0.95

C(=C\c1ccc(N(c2ccccc2)c2ccccc2)cc1)/c1ccc(-c2ccc(/C=C/c3ccc(N(c4ccccc4)c4ccccc4)cc3)cc2)cc1
photoluminescence quantum yield (in ClCCl): 0.86

CN1c2ccc(C(=O)c3ccccc3)cc2Sc2cc(C(=O)c3ccccc3)ccc21
photoluminescence quantum yield (in C1CCCCC1): 0.43 | photoluminescence quantum yield (in C1CCOC1): 0.28 | photoluminescence quantum yield (in CN(C)C=O): 0.18 | photoluminescence quantum yield (in Cc1ccccc1): 0.4 | photoluminescence quantum yield (in ClC(Cl)Cl): 0.21 | photoluminescence quantum yield (in ClCCl): 0.23

Clc1ccc(-c2nc(-c3ccccc3)c(N(c3ccccc3)c3ccccc3)s2)cc1
photoluminescence quantum yield (in ClC(Cl)Cl): 0.56

O=C(O)CCNc1cccc2ccccc12
photoluminescence quantum yield (in CCO): 0.54

COC(=O)c1ccc(C(=O)NC(C)(C)C)c2c1ccc1c3ccccc3c3ccccc3c12
photoluminescence quantum yield (in ClCCl): 0.08

CC(=C(C#Cc1ccccc1)C#Cc1ccccc1)c1ccc(C(C)=C(C#Cc2ccccc2)C#Cc2ccccc2)cc1
photoluminescence quantum yield (in ClC(Cl)Cl): 0.03

CC(C)(C)NC(=O)c1cccc2ccc3c4ccc(F)cc4c4cc(F)ccc4c3c12
photoluminescence quantum yield (in ClCCl): 0.05

Fc1ccc2cc3cccc[n+]3cc2c1
photoluminescence quantum yield (in O): 0.34

C1=Cc2ccccc2Cc2ccccc21
photoluminescence quantum yield (in CC#N): 0.82 | photoluminescence quantum yield (in CO): 0.016

COc1ccc(O)c(C=O)c1
photoluminescence quantum yield (in CO): 0.03

C=CCNc1ccc2c(ccc3oc4cc(=[N+](C)C)ccc-4nc32)c1
photoluminescence quantum yield (in CC#N): 0.06 | photoluminescence quantum yield (in CCO): 0.05 | photoluminescence quantum yield (in ClCCl): 0.4 | photoluminescence quantum yield (in O): 0.009

COC(=O)c1ccc(C2=C(/C=C/c3ccc(OC)cc3)O[B-](F)(F)[O+]=C2/C=C/c2ccc(OC)cc2)cc1
photoluminescence quantum yield (in ClCCl): 0.43

CCCCn1c2ccccc2c2c1c1c3ccccc3n(CCCC)c1c1c3ccccc3n(CCCC)c21
photoluminescence quantum yield (in C1CCOC1): 0.19

N#CC(C#N)=Cc1ccc(-c2ccc(N(c3ccccc3)c3ccccc3)cc2)cc1
photoluminescence quantum yield (in ClC(Cl)Cl): 0.19

Nc1ccc2[nH]ncc2c1
photoluminescence quantum yield (in C1CCCCC1): 0.14 | photoluminescence quantum yield (in CC#N): 0.18 | photoluminescence quantum yield (in CO): 0.37 | photoluminescence quantum yield (in O): 0.57

N#Cc1c(C#N)c2cc(Cl)c(Cl)cc2c2cc(Cl)c(Cl)cc12
photoluminescence quantum yield (in ClC(Cl)Cl): 0.01

F[Si-](F)(c1ccccc1)(c1c2ccccc2cc2ccccc12)c1c2ccccc2cc2ccccc12
photoluminescence quantum yield (in C1CCOC1): 0.46

CCCCCCCCCCn1nnc(-c2ccc(C#Cc3ccc(C#Cc4ccc(-c5nnn(CCCCCCCCCC)n5)cc4)c4nc5c6ccccc6c6ccccc6c5nc34)cc2)n1
photoluminescence quantum yield (in C1CCOC1): 0.05 | photoluminescence quantum yield (in Cc1ccccc1): 0.07 | photoluminescence quantum yield (in ClCCl): 0.04

CC(C)(C)C1CCC(=CS/C=C/c2ccc(/C=C/SC=C3CCC(C(C)(C)C)CC3)cc2)CC1 (configuration not stated)
photoluminescence quantum yield (in ClCCl): 0.031

COCCC1=Cc2nc1ccc1[nH]c(cc1CCOC)c1nc(c(N)cc3[nH]c2cc3CCOC)C(CCOC)=C1
photoluminescence quantum yield (in Cc1ccccc1): 0.04

COc1cc2c(cc1-c1ccc(N(C)C)cc1)Cc1c3c(c4c(c1-2)-c1cc(OC)c(-c2ccc(N(C)C)cc2)cc1C4)C(=O)N(CCC(C)C)C3=O
photoluminescence quantum yield (in C1CCOC1): 0.02

O=c1oc2ccc3ccc(O)cc3c2nc1-c1ccccc1
photoluminescence quantum yield (in c1ccccc1): 0.606

CCCCc1cc2cccc[n+]2[b-]2ccc(-c3cc[b-]4c(c3)c(CCCC)cc3cccc[n+]43)cc21
photoluminescence quantum yield (in C1CCCCC1): 0.05

CC1(C)c2cccc(-c3nc(-c4ccccc4)nc(-c4ccccc4)n3)c2Oc2c(-n3c4ccccc4c4ccccc43)cccc21
photoluminescence quantum yield (in Cc1ccccc1): 0.059

N#C/C(=C\c1ccc(C#N)cc1)c1nc(-c2ccc(Cl)cc2)cs1
photoluminescence quantum yield (in CC#N): 0.18

Cc1cc(-n2c3ccccc3c3ccccc32)c(-n2c3ccccc3c3ccccc32)cc1C#N
photoluminescence quantum yield (in c1cc(-c2cccc(-n3c4ccccc4c4ccccc43)c2)cc(-n2c3ccccc3c3ccccc32)c1): 0.89 | photoluminescence quantum yield (in c1ccc2c(c1)c1ccccc1n2-c1ccc2sc3ccc(-n4c5ccccc5c5ccccc54)cc3c2c1): 0.841 | photoluminescence quantum yield (in c1ccc2c(c1)c1ccccc1n2-c1ccc2sc3ccc(-n4c5ccccc5c5cccnc54)cc3c2c1): 0.982 | photoluminescence quantum yield (in c1ccc2c(c1)c1cccnc1n2-c1ccc2sc3ccc(-n4c5ccccc5c5cccnc54)cc3c2c1): 0.879

COc1ccc(/C=C(\c2ccccc2)c2nc3ccccc3s2)cc1
photoluminescence quantum yield (in CO): 0.001

c1ccc2cc(-n3cnc4ccccc43)ccc2c1
photoluminescence quantum yield (in C1CCCCC1): 0.23 | photoluminescence quantum yield (in CCOC(C)=O): 0.18 | photoluminescence quantum yield (in CO): 0.16

CCCCCCc1ccsc1-c1cc2c3cc(-c4sccc4CCCCCC)c4nc(C(F)(F)C(F)(F)C(F)(F)F)nc5c(-c6sccc6CCCCCC)cc(c6cc(-c7sccc7CCCCCC)c7nc(C(F)(F)C(F)(F)C(F)(F)F)nc1c7c26)c3c45
photoluminescence quantum yield (in C1CCOC1): 0.65

COc1cc2oc(=O)c3c4ccc(C=O)cc4c4ccc5cccc6c(c1)c2c3c4c56
photoluminescence quantum yield (in C1CCOC1): 0.459

COc1ccc(C2=C(c3ccc(OC)cc3)C(C)(C)c3ccccc32)cc1
photoluminescence quantum yield (in C1CCCCC1): 0.09
